Laboratory results taken from US20240287082A1, “NEW BENZODIAZEPINE DERIVATIVES AS GABA A GAMMA1 PAM” (Hoffmann-La Roche Inc., priority 2021, published 2024).
Where two headings read alike, the source gives them in different places.

Legend:
[1] = molecular target: human GABAA α5β2γ1 receptor (Homo sapiens (Human), UniProt P31644+Q8N1C3); experiment: Radioligand binding assay, competition for [3H]RO7239181, γ1-containing GABAA subtype α5β2γ1
Procedure: The affinity of compounds at GABAA γ1 subunit-containing receptors was measured by competition for [^3H]RO7239181 (67.3 Ci/mmol; Roche) binding to membranes from HEK293F cells (ThermoFisher R^79007) expressing human (transiently transfected) receptors of composition α5β2γ1, α2β2γ1, α1β2γ1. For better protein expression of the α2 subunit-containing receptors, the 28 amino acid long signal peptide (Met1 to Ala28)of the human GABAA α2 subunit was substituted by the 31 amino acid long signal peptide (Met1 to Ser31) of human GABAA α5 subunit.
Harvested pellets from HEK293F cells expressing the different GABAA receptor subtypes were resuspended in Mannitol Buffer pH 7.2-7.4 (Mannitol 0.29M, Triethylamine 10 mM, Acetic acid 10 mM, EDTA 1 mM plus protease inhibitors (20 tablets Complete, Roche Diagnostics Cat. No. 05 056 489 001 per liter)), washed two times and then resuspended at 1:10 to 1:15 dilution in the same buffer. Cell disruption was performed by stirring the suspension in a Parr vessel #4637 at 435 psi for 15 minutes, and then the suspensions were centrifuged at 1000×g for 15 minutes at 4° C. (Beckman Avanti J-HC: rotor JS-4.2). The supernatant (S1) was transferred in a 21 Schott flask and the pellet (P1) was resuspended with Mannitol Buffer up to 175 ml. The resuspended pellet was transferred into a 250 ml Corning centrifugal beaker and centrifuged at 1500×g for 10 minutes at 4° C. (Beckman Avanti J-HC: rotor JS-4.2). The supernatant (S1) was then transferred in the 21 Schott flask and the pellet was discarded. The supernatants (S1) were centrifuged in 500 ml Beckman polypropylene centrifugal beaker at 15 000×g for 30 minutes at 4° C. (Beckman Avanti J-20 XP: rotor JLA-10.500). The pellet (P2) was resuspended with Mannitol Buffer 1:1 and frozen at −80° C. The supernatant (S2) was centrifuged in 100 ml Beckman polypropylene centrifugal tubes at 48000×g for 50 minutes at 4° C. (Beckman Avanti J-20 XP: rotor JA-18). The supernatant (S3) was discarded and the pellet (P3) was resuspended with 1:1 Mannitol Buffer. The P2 and P3 protein concentration was determined with the BIORAD Standard assay method with bovine serum albumin as standard and measured on the NANO-Drop 1000. The membrane suspension was aliquots (500 μl per tube) and stored at −80° C. until required.
Membrane homogenates were resuspended and polytronised (Polytron PT1200E Kinematica AG) in Potassium Phosphate 10 mM, KCl 100 mM binding buffer at pH 7.4 to a final assay concentration determined with a previous experiment.
Radioligand binding assays were carried out in a volume of 200 μL (96-well plates) which contained 100 μL of cell membranes, [3H]RO7239181 at a concentration of 1.5 nM (α5β2γ1) or 20-30 nM (α1β2γ1, α2β2γ1) and the test compound in the range of [0.3-1000]×10^−9 M. Nonspecific binding was defined by 10×10^−6 (α5β2γ1) and 30×10^−6 M RO7239181 and typically represented less than 5% (α5β2γ1) and less than 20% (α1β2γ1, α2β2γ1) of the total binding. Assays were incubated to equilibrium for 1 hour at 4° C. and then, membranes were filtered onto unifilter (96-well white microplate with bonded GF/C filters preincubated 20-50 minutes in 0.3% Polyethylenimine) with a Filtermate 196 harvester (Packard BioScience) and washed 4 times with cold Potassium Phosphate 10 mM pH 7.4, KCl 100 mM binding buffer. After anhydrousing, filter-retained radioactivity was detected by liquid scintillation counting. Ki values were calculated using Excel-Fit (Microsoft) and are the means of two determinations.

h-GABA-A α2β2γ1 = h-GABA-A α2β2γ1 (Homo sapiens (Human), UniProt P47869+Q8N1C3); experiment: Two-electrode voltage clamp electrophysiology in Xenopus oocytes expressing GABAA receptors, modulation of GABA EC20 current; type: cell-based; conditions: for Efficacy (GABA) %: % modulation of GABA EC20 = 100*(Fold increase−1), compound at 30-fold Ki α2β2γ1; for Fold increase h-GABA-A α2β2γ1 oocyte @ 30-fold Ki: Xenopus oocytes, GABA EC20, test compound at approx. 30-fold its Ki α2β2γ1
Procedure: Xenopus laevis oocytes at maturation stages V-VI were used for the expression of cloned mRNA encoding GABAA receptor subunits. Oocytes ready for RNA micro-injection were bought from Ecocyte, Castrop-Rauxel, Germany and stored in modified Barth's medium (composition in mM: NaCl 88, KCl 1, NaHCO3 2.4, HEPES 10, MgSO4 0.82, CaNO3 0.33, CaCl2 0.33, pH=7.5) at 20° C. until the experiment.
Oocytes were plated in 96-well plates for microinjection using the Roboinject automated instrument (MultiChannelSystems, Reutlingen, Germany). Approximately 50 nL of an aqueous solution containing the RNA transcripts for the subunits of the desired GABAA receptor subtype was injected into each oocyte. […] Oocytes were kept in modified Barth's medium (composition in mM: NaCl 88, KCl 1, NaHCO3 […], HEPES 10, MgSO4 0.82, CaNO3 0.33, CaCl2 0.33, pH=7.5) at 20° C. until the experiment.
Electrophysiological experiments were performed using the Roboocyte instrument (MultiChannelSystems, Reutlingen, Germany) on days 3 to 5 after the micro-injection of mRNA. During the experiment the oocytes were constantly superfused by a solution containing (in mM) NaCl 90, KCl 1, HEPES 5, MgCl2 1, CaCl2 1 (pH 7.4). Oocytes were impaled by two glass microelectrodes (resistance: 0.5-0.8 MΩ) which were filled with a solution containing KCl 1M+K-acetate 1.5 M and voltage-clamped to −80 mV. The recordings were performed at room temperature using the Roboocyte two-electrode voltage clamp system (Multichannelsystem). After an initial equilibration period of 1.5 min GABA was added for 1.5 min at a concentration evoking approximately 20% of a maximal current response (EC20). After another rest interval of 2.5 min GABA was again added evoking a response of similar amplitude and shape. […] Current traces were recorded at a digitization rate of 10 Hz during and shortly before and after the GABA application.
Each compound and concentration was tested on at least 3 oocytes. Different oocytes were used for different compound concentrations.
For the analysis, the digitized current traces of the first and second GABA response were superimposed and, if necessary, rescaled to equal maximal amplitudes. The ratio between the two responses during the time interval of test compound application was calculated point by point. The extremum of the resulting “ratio trace” was taken as the efficacy (“Fold increase”) of the compound expressed as “% modulation of GABA EC20” (100*(Fold increase−1)).

[2] = membranes of HEK293F cells, [3H]RO7239181 1.5 nM, mean of two determinations, read-out: Ki h-GABAA α5β2γ1

| Structure (SMILES) | Ki [1, 2] [nM] | Efficacy (GABA) % (h-GABA-A α2β2γ1) [%] | Fold increase h-GABA-A α2β2γ1 oocyte @ 30-fold Ki (h-GABA-A α2β2γ1) | Ki [1] [nM] |
| --- | --- | --- | --- | --- |
| CCOCCc1cn2c(nc1=O)CN=C(c1c(F)cccc1F)c1c-2ccc(Cl)c1Cl [Example 24, 8,9-dichloro-7-(2,6-difluorophenyl)-2-(2-ethoxyethyl)-5H-pyrimido[1,2-a][1,4]benzodiazepin-3-one] | 3 | 120 | 2.20 | – |
| CNC(=O)c1cn2c(nc1=O)[C@H](C)N=C(c1c(F)cccc1F)c1c-2ccc(C(F)(F)F)c1Cl [Example 27, (5S)-8-chloro-7-(2,6-difluorophenyl)-N,5-dimethyl-3-oxo-9-(trifluoromethyl)-5H-pyrimido[1,2-a][1,4]benzodiazepine-2-carboxamide] | 6.2 | 113 | 2.13 | – |
| CCO/C=C/c1cn2c(nc1=O)CN=C(c1c(F)cccc1F)c1c-2ccc(C(F)(F)F)c1Cl [Example 25, 8-chloro-7-(2,6-difluorophenyl)-2-[(E)-2-ethoxyvinyl]-9-(trifluoromethyl)-5H-pyrimido[1,2-a][1,4]benzodiazepin-3-one] | 9.4 | 81 | 1.81 | – |
| CCO/C=C/c1cn2c(nc1=O)[C@H](C)N=C(c1c(F)cccc1F)c1c-2ccc(Cl)c1Cl [Example 19, (5S)-8,9-dichloro-7-(2,6-difluorophenyl)-2-[(E)-2-ethoxyvinyl]-5-methyl-5H-pyrimido[1,2-a][1,4]benzodiazepin-3-one] | 4.9 | 104 | 2.04 | – |
| CCOCCc1cn2c(nc1=O)[C@H](C)N=C(c1c(F)cccc1F)c1c-2ccc(C(F)(F)F)c1Cl [Example 20, (5S)-8-chloro-7-(2,6-difluorophenyl)-2-(2-ethoxyethyl)-5-methyl-9-(trifluoromethyl)-5H-pyrimido[1,2-a][1,4]benzodiazepin-3-one] | 6.6 | 113 | 2.13 | – |
| C[C@@H]1N=C(c2c(F)cccc2F)c2c(ccc(Br)c2Cl)-n2ccc(=O)nc21 [Example 13, (5S)-9-bromo-8-chloro-7-(2,6-difluorophenyl)-5-methyl-5H-pyrimido[1,2-a][1,4]benzodiazepin-3-one] | – | 70 | 1.7 | 1 |
| CCc1cn2c(nc1=O)[C@H](C)N=C(c1c(F)cccc1F)c1c-2ccc(C(F)(F)F)c1Cl [Example 11, (5S)-8-chloro-7-(2,6-difluorophenyl)-2-ethyl-5-methyl-9-(trifluoromethyl)-5H-pyrimido[1,2-a][1,4]benzodiazepin-3-one] | – | 70 | 1.7 | 4.1 |
| O=c1ccn2c(n1)CN=C(c1c(F)cccc1F)c1c-2ccc(Cl)c1Cl [Example 2, 8,9-dichloro-7-(2,6-difluorophenyl)-5H-pyrimido[1,2-a][1,4]benzodiazepin-3-one] | – | 88 | 1.88 | 1.1 |
| CCOCCc1cn2c(nc1=O)CN=C(c1c(F)cccc1F)c1c-2ccc(C(F)(F)F)c1Cl [Example 26, 8-chloro-7-(2,6-difluorophenyl)-2-(2-ethoxyethyl)-9-(trifluoromethyl)-5H-pyrimido[1,2-a][1,4]benzodiazepin-3-one] | 21.6 | 113 | 2.13 | – |
| O=c1ccn2c(n1)CN=C(c1ncccc1F)c1c-2ccc(Cl)c1Cl [Example 3, 8,9-dichloro-7-(3-fluoro-2-pyridyl)-5H-pyrimido[1,2-a][1,4]benzodiazepin-3-one] | – | 192 | 2.92 | 10.3 |
| Cc1cn2c(nc1=O)[C@H](C)N=C(c1c(F)cccc1F)c1c-2ccc(C(F)(F)F)c1Cl [Example 9, (5S)-8-chloro-7-(2,6-difluorophenyl)-2,5-dimethyl-9-(trifluoromethyl)-5H-pyrimido[1,2-a][1,4]benzodiazepin-3-one] | – | 99 | 1.99 | 3.1 |
| O=c1ccn2c(n1)CN=C(c1ccccc1F)c1c-2ccc(Cl)c1Cl [Example 1, 8,9-dichloro-7-(2-fluorophenyl)-5H-pyrimido[1,2-a][1,4]benzodiazepin-3-one] | – | 92 | 1.92 | 3.8 |
| CCO/C=C/c1cn2c(nc1=O)[C@H](C)N=C(c1c(F)cccc1F)c1c-2ccc(C(F)(F)F)c1Cl [Example 18, (5S)-8-chloro-7-(2,6-difluorophenyl)-2-[(E)-2-ethoxyvinyl]-5-methyl-9-(trifluoromethyl)-5H-pyrimido[1,2-a][1,4]benzodiazepin-3-one] | 9.7 | 89 | 1.89 | – |
| CCO/C=C/c1cn2c(nc1=O)CN=C(c1c(F)cccc1F)c1c-2ccc(Cl)c1Cl [Example 22, 8,9-dichloro-7-(2,6-difluorophenyl)-2-[(E)-2-ethoxyvinyl]-5H-pyrimido[1,2-a][1,4]benzodiazepin-3-one] | 2.1 | 113 | 2.13 | – |
| CCOCCc1cn2c(nc1=O)[C@H](C)N=C(c1c(F)cccc1F)c1c-2ccc(Cl)c1Cl [Example 21, (5S)-8,9-dichloro-7-(2,6-difluorophenyl)-2-(2-ethoxyethyl)-5-methyl-5H-pyrimido[1,2-a][1,4]benzodiazepin-3-one] | 3.4 | 113 | 2.13 | – |
